Source: US20050208549A1, “Testing endosymbiont cellular organelles and compounds identifiable therewith” (priority 2000, published 2005)

Tests used:
Format in all cases: cell-based
[1] = test system: peripheral blood mononuclear cells (PBMCs); test: NASBA ratio of mitochondrial DNA to chromosomal DNA in cultured PBMCs; conditions: culture period of five days, 6 μM and 60 μM
Description: (§1) In Table 1, the primers and probes used in the examples are summarized. Standard NASBA nucleic acid amplification reactions were performed in a 20 μl reaction volume and contained: 40 mM Tris-pH 8.5, 70 mM KCl, 12 mM MgCl2, 5 mM dithiothreitol, 1 mM dNTPs (each), 2 mM rNTPs (each), 0.2 μM primer (each), 0.05 μM molecular beacon, 375 mM sorbitol, 0.105 μg/μl bovine serum albumin, 6.4 units AMV RT, 32 units T7 RNA polymerase, 0.08 units RNAse H and input nucleic acid. The complete mixture, except the enzymes, sorbitol and/or bovine serum albumin was, prior to adding the enzyme mixture, heated to 65° C. for two minutes in order to denature any secondary structure in the RNA and to allow the primers to anneal. After cooling the mixture to 41° C., the enzymes were added. The amplification took place at 41° C. for 90 minutes in a fluorimeter (CytoFluor 2000) and the fluorescent signal was measured every minute (using the filter set 530/25 nm and 485/30 nm). […]
(§2) To achieve quantification, a dilution series of target sequences for a particular primer set was amplified and the time points at which the reactions became positive (the time to positivity, TTP) were plotted against the input amounts of nucleic acid. This way a calibration curve was created that could be used to read TTP values of reactions with unknown amounts of input and deduce the input amount. […]

Fibroblast cells [2] = test: NASBA ratio of mitochondrial DNA to chromosomal DNA in cultured fibroblast cells; conditions: culture period of four weeks, antiviral drugs at 3 μM and 30 μM
Description: as §1, §2

Fibroblast cells [3] = test: NASBA ratio of mitochondrial RNA to mitochondrial DNA in cultured fibroblast cells; conditions: culture period of four weeks, antiviral drugs at 3 μM and 30 μM
Description: as §1, §2

Fibroblasts = test: Lactate-pyruvate ratio in fibroblasts cultured with ddC
Description: Fibroblasts were cultured in the presence of the anti-retroviral drug ddC. (30 μM) for four weeks. After that period, the cell culture continued in the presence, but also in the absence, of ddC for another six weeks. During this period of culture, part of the cells were harvested and analyzed for the ratio of lactate-pyruvate using standard methods known by persons skilled in the art.

| SMILES | change in ratio of mitochondrial DNA to chromosomal DNA [1] | change in mitochondrial DNA to chromosomal DNA ratio (Fibroblast cells [2]) | change in mitochondrial RNA to mitochondrial DNA ratio (Fibroblast cells [3]) | culture time after which a significant increase of lactate pyruvate ratio can be observed (Fibroblasts; ddC 30 μM) | lactate-pyruvate ratio in continued culture in the absence of ddC (Fibroblasts; ddC 30 μM for four weeks, then without ddC) | lactate pyruvate ratio in the presence of ddC (Fibroblasts; ddC 30 μM, FIG. 17) | lactate-pyruvate ratio during continued culture in the presence of ddC (Fibroblasts; ddC 30 μM, after week four, another six weeks) |
| --- | --- | --- | --- | --- | --- | --- | --- |
| Cc1cn([C@H]2C[C@H](N=[N+]=[N-])[C@@H](CO)O2)c(=O)[nH]c1=O [AZT] | no measurable change | no measurable change | no measurable change |  |  |  |  |
| Nc1ccn([C@H]2CC[C@@H](CO)O2)c(=O)n1 [ddC] |  |  |  | four | drops to normal levels | increases | remains high |
